Experimental data from publication PMC7070575, “Novel Blood–Brain Barrier Shuttle Peptides Discovered through the Phage Display Method” (Molecules, 2020).
Ends that are not written are not given here.

What was measured:
[1] = system: primary rat in vitro BBB model (primary rat endothelial cells co-cultured with primary rat glial cells); details: for permeability coefficient (Pe) through in vitro BBB: pH 7.4
Method: (§1) The permeability of peptides was assessed using a primary rat in vitro BBB model. […] Transendothelial electrical resistance (TEER) measurements were used to measure the resistance of tight junctions in our BBB model. For our experiments, we used only inserts with the TEER value ≥320 ± 20 Ώ cm^−2 that corresponded to an intact in vitro BBB model. Alternatively, the integrity of the in vitro rat BBB model was assessed by measuring the permeability of the paracellular compound Lucifer Yellow (LY). Lucifer Yellow was added to the well with the peptides.
(§2) To test the permeability of selected peptides across in vitro BBB model, peptide transport to the abluminal compartment was quantified by ultra-high-performance liquid chromatography/mass spectrometry (UHPLC–MS/MS) method.
(§3) As a negative control, we performed the permeability experiments with N–C reversed sequence peptides: [sequence] and [sequence].
(§4) To test the effect of temperature on the transport of peptides across BBB, endothelial cells were incubated with peptides at 4°C to reduce cell metabolism which slows down endocytosis.
(§5) Briefly, 4 Sprague–Dawley rats (200–250 g, 6 months old) were euthanized, and the whole brains were removed. Under sterile conditions, the brainstem and cerebellum were dissected, and the midbrain, white matter, and choroid plexus were removed. The remaining cortical tissue was cleaned from meninges on dry Whatman paper. The tissue was homogenized on ice in DMEM-F12 (PAA laboratories GmbH, Germany). The brain homogenate was centrifuged at 800× g for 10 min at 4 °C. The supernatant was aspirated, and the pellet was resuspended in pre-warmed digestion mix containing collagenase/dispase (Roche Diagnostics, Indianapolis, IN, USA) and DNase I (Sigma–Aldrich, St. Louis, MO, USA). The tissue was incubated with a prepared digestion mix at 37 °C for 30 min with gentle shaking. Digested tissue was centrifuged at 800× g for 10 min at 4 °C, and the pellet was resuspended in 20% bovine serum albumin (BSA, Sigma–Aldrich, St. Louis, MO). The tissue was centrifuged at 1500× g for 15 min at 4 °C to obtain pellet containing microvessels with a fraction of myelin and BSA on the top, which was centrifuged again. The microvessels were pooled and resuspended in pre-warmed digestion mix and digested for 15 min at 37 °C. The microvessels pellet was again centrifuged at 800× g for 10 min at 4 °C and washed with culture medium containing the serum. The microvessels were cultured in DMEM-F12 medium (PAA Laboratories GmbH, Germany) containing 15% plasma-derived serum (PDS) (First Link, UK), 2 mM L-glutamine (GE Healthcare, UK), BME vitamins (Sigma–Aldrich, St. Louis, MO), heparin (Sigma–Aldrich, St. Louis, MO) and 3 µM puromycine (Sigma–Aldrich, St. Louis, MO). After 7 days, cells were seeded on the upper chamber (apical compartment) of Transwell insert with a 0.4 µm pore size (Becton Dickinson, New Jersey, USA) pre-coated with 10 µg/cm^2 collagen type IV (Sigma–Aldrich, St. Louis, MO) and 5 µg/cm^2 fibronectin (Sigma–Aldrich, St. Louis, MO).

[2] = system: primary rat in vitro BBB model; assay: Permeability of endothelium to Lucifer Yellow (BBB integrity); assay type: in vitro ADME; details: 10 µM Lucifer Yellow apical, added with the peptides; Ringer-HEPES pH 7.4; 37 °C; 5-60 min; fluorescence 428/536 nm
Method: All incubations were performed at 37 °C.

in vitro = details: Sprague-Dawley, rat, pH 7.4
Method: as §1, §2, §3, §4, §5

| permeability coefficient (Pe) through in vitro BBB [1] | endothelial permeability coefficient (Pe) of LY [2] | Papp A→B (in vitro) | permeability at 4 °C (37 °C: 100%) [1] | permeability reduced at 4 °C [1] | Substance |
| --- | --- | --- | --- | --- | --- |
| 0.75 ×10⁻⁶ cm/s |  |  |  |  | HLYLNTASTHLG |
|  | around 11 × 10^−6 cm/s |  |  |  | Lucifer Yellow |
|  |  | 0.5 ×10⁻⁶ cm/s |  |  | WPVYIEGTRAAV |
|  |  | 1.5 ×10⁻⁶ cm/s | 69% | 30.5% | VAARTGEIYVPW |
| 0.33 ×10⁻⁶ cm/s |  |  | 79% | 20.5% | GLHTSATNLYLH |
